Source: patent publication US20240391954A1, “MC4R AGONIST PEPTIDES” (The Regents of the University of Michigan, priority 2021, published 2024)
Positions of bridges follow the written chain, without caps; N, C: chain ends. Non-standard residues stand in square brackets, D forms with d. Residues, ends and D or L forms follow the SMILES beside them. Nle = CCCC[C@H](N)C(=O)O

Legend:
Type in all cases: cell-based
human MC1R = biological target: T1, human MC1R (Homo sapiens, UniProt Q01726); assay: split-luciferase cAMP sensor assay, agonist mode, hMC1R; conditions: MC4R versus MC1R
T1 construct: expressed in transfected cells; host or cells: HEK-293 cells stably expressing hMC1R and the GScAMP22F cAMP sensor
T1 sequence (Q01726 whole entry): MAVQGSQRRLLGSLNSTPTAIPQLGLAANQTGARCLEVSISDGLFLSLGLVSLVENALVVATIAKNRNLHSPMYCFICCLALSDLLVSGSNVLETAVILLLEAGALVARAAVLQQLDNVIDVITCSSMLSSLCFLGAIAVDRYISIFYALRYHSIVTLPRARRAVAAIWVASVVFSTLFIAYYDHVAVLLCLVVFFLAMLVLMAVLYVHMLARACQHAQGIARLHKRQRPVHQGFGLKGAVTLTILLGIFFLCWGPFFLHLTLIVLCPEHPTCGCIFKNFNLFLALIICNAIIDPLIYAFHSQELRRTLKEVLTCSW
In short: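 HEK-293 cells stably expressing hMC1R and the GScAMP22F split-luciferase cAMP sensor, preloaded 120 min at 37° C with D-luciferin in serum-free medium. Peptide responses were taken as peak luminescence over 2-13 min minus 2-min baseline, normalized to the α-MSH ECmax. EC50 was obtained from a four-parameter variable-slope fit.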

human MC4R = biological target: T2, human MC4R (Homo sapiens, UniProt P32245); assay: split-luciferase cAMP sensor assay, agonist mode (measurement window 1), hMC4R; conditions: % maximal activation, agonist mode; read-out: MC4R cAMP % max activation
T2 construct: host or cells: HEK-293 cells stably expressing the GScAMP22F split-luciferase cAMP sensor and hMC4R, G418 selection
T2 sequence (P32245 whole entry): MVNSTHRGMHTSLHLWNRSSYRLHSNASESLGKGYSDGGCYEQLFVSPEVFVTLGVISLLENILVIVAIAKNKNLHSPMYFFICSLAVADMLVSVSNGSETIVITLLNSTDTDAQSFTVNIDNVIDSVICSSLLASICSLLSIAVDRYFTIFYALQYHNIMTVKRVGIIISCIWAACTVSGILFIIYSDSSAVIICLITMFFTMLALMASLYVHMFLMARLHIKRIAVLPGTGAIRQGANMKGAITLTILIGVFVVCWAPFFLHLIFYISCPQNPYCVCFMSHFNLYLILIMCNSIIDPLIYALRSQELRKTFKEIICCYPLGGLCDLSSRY
In short: (§1)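 EC50 values come from a four-parameter variable-slope fit of luminescence in measurement window 1, capturing direct peptide effects on receptor-expressing cells with a cAMP22f luciferase sensor. Cells were preloaded with 4% D-luciferin, serum-free medium; 20 μM forskolin normalized for cell number and transducer efficiency.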

human MC3R = biological target: T3, human MC3R (Homo sapiens, UniProt P41968); assay: split-luciferase cAMP sensor assay, agonist mode (measurement window 1), hMC3R
T3 construct: expressed in transfected cells; host or cells: HEK-293 cells stably expressing the GScAMP22F split-luciferase cAMP sensor (parent reporter line from Promega); MC3R clone generated in-house, G418 selection
T3 sequence (P41968 whole entry): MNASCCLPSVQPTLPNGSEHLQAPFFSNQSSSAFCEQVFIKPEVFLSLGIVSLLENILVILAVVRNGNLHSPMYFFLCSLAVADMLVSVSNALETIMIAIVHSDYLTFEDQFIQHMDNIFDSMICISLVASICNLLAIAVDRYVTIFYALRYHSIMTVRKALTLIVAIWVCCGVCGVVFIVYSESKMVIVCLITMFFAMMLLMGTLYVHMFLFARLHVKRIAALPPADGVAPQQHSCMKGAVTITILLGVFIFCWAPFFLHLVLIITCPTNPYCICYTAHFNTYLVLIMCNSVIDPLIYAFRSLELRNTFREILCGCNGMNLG
In short: as §1

CCCC[C@H](NC(=O)[C@H](CCCNC(=N)N)NC(C)=O)C(=O)N[C@H]1CSSC[C@@H](C(N)=O)NC(=O)[C@H](Cc2c[nH]c3ccccc23)NC(=O)[C@H](CCCNC(=N)N)NC(=O)[C@@H](Cc2ccccc2)NC(=O)[C@H](Cc2c[nH]cn2)NC1=O [CTX-1227, Arg-Nle-cyclo(Cys-His-D-Phe-Arg-Trp-Cys)] (Ac-R[Nle]CH[dF]RWC-NH2; disulfide 3-8 (inferred)) was tested, and the “MC4R selectivity vs MC1R” value (human MC1R) was 0.92, the Emax (human MC4R) was 103% and the Emax (human MC3R; % maximal activation, agonist mode, read-out: MC3R cAMP % max activation) was 96%. The EC50 (human MC3R; HEK-293 cells stably expressing hMC3R, agonist mode, read-out: MC3R cAMP EC50) was 2.8 nM and the “MC4R selectivity vs MC3R” value (human MC3R; MC4R versus MC3R) was 11.
